Results reported in ChEMBL document CHEMBL4725351, “Cyclic Derivative of Host-Defense Peptide IDR-1018 Improves Proteolytic Stability, Suppresses Inflammation, and Enhances In Vivo Activity” (J Med Chem, 2020).
Converted amounts (≈) assume the structure as drawn. The source made the active and inactive calls. The rule behind the calls is not given here. Where a SMILES comes first, the peptide text is derived from it. Bridges are numbered along the chain shown (N, C = ends).

Columns and labels:
Staphylococcus aureus [1] = experiment: Antibacterial activity against methicillin-resistant Staphylococcus aureus SAP0017 measured after overnight incubation by microtitre plate based spectrophotometric method; type: functional
Staphylococcus aureus [2] = experiment: Antibacterial activity against methicillin-resistant Staphylococcus aureus USA300 LAC measured after overnight incubation by microtitre plate based spectrophotometric method; type: functional
Pseudomonas aeruginosa [3] = experiment: Antibacterial activity against Pseudomonas aeruginosa PA14 measured after overnight incubation by microtitre plate based spectrophotometric method; type: functional
Pseudomonas aeruginosa [4] = experiment: Antibacterial activity against Pseudomonas aeruginosa PAO1 measured after overnight incubation by microtitre plate based spectrophotometric method; type: functional
Escherichia coli [5] = experiment: Antibacterial activity against Escherichia coli ATTC 489 measured after overnight incubation by microtitre plate based spectrophotometric method; type: functional
Acinetobacter baumannii [6] = experiment: Antibacterial activity against Acinetobacter baumannii 5015 measured after overnight incubation by microtitre plate based spectrophotometric method; type: functional
Acinetobacter baumannii [7] = experiment: Antibacterial activity against Acinetobacter baumannii 17918 measured after overnight incubation by microtitre plate based spectrophotometric method; type: functional
Klebsiella pneumoniae [8] = experiment: Antibacterial activity against Klebsiella pneumoniae ATTC 13883 measured after overnight incubation by microtitre plate based spectrophotometric method; type: functional
Staphylococcus aureus [9] = experiment: Antibiofilm activity against methicillin-resistant Staphylococcus aureus SAP0017 incubated for 24 hrs under shaking condition by turbidometric method; type: functional
Staphylococcus aureus [10] = experiment: Antibiofilm activity against methicillin-resistant Staphylococcus aureus USA300 LAC incubated for 24 hrs under shaking condition by turbidometric method; type: functional
Pseudomonas aeruginosa [11] = experiment: Antibiofilm activity against Pseudomonas aeruginosa PA14 incubated for 24 hrs under shaking condition by turbidometric method; type: functional
Pseudomonas aeruginosa [12] = experiment: Antibiofilm activity against Pseudomonas aeruginosa PAO1 incubated for 24 hrs under shaking condition by turbidometric method; type: functional
Escherichia coli [13] = experiment: Antibiofilm activity against Escherichia coli ATTC 489 incubated for 24 hrs under shaking condition by turbidometric method; type: functional
Acinetobacter baumannii [14] = experiment: Antibiofilm activity against Acinetobacter baumannii 5015 incubated for 24 hrs under shaking condition by turbidometric method; type: functional
Acinetobacter baumannii [15] = experiment: Antibiofilm activity against Acinetobacter baumannii 17918 incubated for 24 hrs under shaking condition by turbidometric method; type: functional
Klebsiella pneumoniae [16] = experiment: Antibiofilm activity against Klebsiella pneumoniae ATTC 13883 incubated for 24 hrs under shaking condition by turbidometric method; type: functional
Staphylococcus aureus [17] = experiment: Antibiofilm activity against methicillin-resistant Staphylococcus aureus SAP0017 assessed as reduction in biofilm biomass incubated overnight by crystal violet staining assay; type: functional
Staphylococcus aureus [18] = experiment: Antibiofilm activity against methicillin-resistant Staphylococcus aureus USA300 LAC assessed as reduction in biofilm biomass measured after overnight incubation by crystal violet staining assay; type: functional
Pseudomonas aeruginosa [19] = experiment: Antibiofilm activity against 24 hrs preformed Pseudomonas aeruginosa PA14 biofilm assessed as reduction in biofilm viability at 7.2 to 30.3 uM by TTC assay relative to control; type: functional; details: dose microM 7.2-30.3
Pseudomonas aeruginosa [20] = experiment: Antibiofilm activity against 24 hrs preformed Pseudomonas aeruginosa PAO1 biofilm assessed as reduction in biofilm viability at 7.2 to 30.3 uM by TTC assay relative to control; type: functional; details: dose microM 7.2-30.3
Escherichia coli [21] = experiment: Antibiofilm activity against 24 hrs preformed Escherichia coli ATTC 489 biofilm assessed as reduction in biofilm viability at 7.2 to 30.3 uM by TTC assay relative to control; type: functional; details: dose microM 7.2-30.3
Acinetobacter baumannii [22] = experiment: Antibiofilm activity against 24 hrs preformed Acinetobacter baumannii 5015 biofilm assessed as reduction in biofilm viability at 7.2 to 30.3 uM by TTC assay relative to control; type: functional; details: dose microM 7.2-30.3
Acinetobacter baumannii [23] = experiment: Antibiofilm activity against 24 hrs preformed Acinetobacter baumannii 17918 biofilm assessed as reduction in biofilm viability at 7.2 to 30.3 uM by TTC assay relative to control; type: functional; details: dose microM 7.2-30.3
Klebsiella pneumoniae [24] = experiment: Antibiofilm activity against 24 hrs preformed Klebsiella pneumoniae ATTC 13883 biofilm assessed as reduction in biofilm viability at 7.2 to 30.3 uM by TTC assay relative to control; type: functional; details: dose microM 7.2-30.3
Trypsin = Trypsin (Homo sapiens, UniProt P07477+P07478+P35030); experiment: Stability of the compound in pH 8.2 ammonium bicarbonate buffer assessed as trypsin (unknown origin)-mediated drug degradation at 20 ug/ml measured after 120 mins by RP-HPLC analysis; type: ADME, protein assay; details: trypsin in ammonium bicarbonate buffer, pH 8.2, at 20 µg/mL, read-out: Drug degradation
[25] = Aggregation property of the compound in water at 1 mg/ml by turbidimetric method; type: physicochemical; details: buffer
[26] = Aggregation property of the compound in saline at 1 mg/ml by turbidimetric method; type: physicochemical; details: buffer
[27] = Aggregation property of the compound in 5% dextrose at 1 mg/ml by turbidimetric method; type: physicochemical
[28] = Aggregation property of the compound in RPMI medium with 1% FBS at 1 mg/ml by turbidimetric method; type: physicochemical
[29] = Aggregation property of the compound in sodium citrate solution at 10 mM by turbidimetric method; type: physicochemical; details: 10000 µM
[30] = Aggregation property of the compound in sodium phosphate solution at 10 mM by turbidimetric method; type: physicochemical; details: 10000 µM
[31] = Aggregation property of the compound in sodium nitrate solution at 10 mM by turbidimetric method; type: physicochemical; details: 10000 µM
[32] = Aggregation of the compound in human PBMC assessed as amorphous morphology at 50 ug/ml measured after 4 hrs by microscopic analysis; type: ADME, tissue-based; details: dose 50 µg/ml
[33] = Cytotoxicity against human PBMC assessed as reduction in cell viability at 100 ug/ml measured after 24 hrs by LDH assay; type: tissue-based; details: dose 100 µg/ml
PBMC [34] = experiment: Immunomodulatory activity in human PBMC assessed as increase in MCP1 production at 25 ug/ml measured after overnight incubation by ELISA; type: functional, tissue-based; details: dose 25.0 µg/ml
PBMC [35] = experiment: Immunomodulatory activity in human PBMC assessed as change in TNFalpha production at 25 ug/ml measured after overnight incubation by ELISA; type: functional, tissue-based; details: dose 25.0 µg/ml
PBMC [36] = experiment: Immunomodulatory activity in human PBMC assessed as increase in IL-1RA production at 25 ug/ml measured after overnight incubation by ELISA; type: functional, tissue-based; details: dose 25.0 µg/ml
PBMC [37] = experiment: Immunomodulatory activity in human PBMC assessed as reduction in LPS-induced TNFalpha production at 25 ug/ml measured after overnight incubation by ELISA; type: functional, tissue-based; details: dose 25.0 µg/ml
[38] = Immunomodulatory activity in human PBMC assessed as increase in LPS-induced MCP1 production at 25 ug/ml measured after overnight incubation by ELISA; type: functional; details: dose 25 µg/ml
[39] = Immunomodulatory activity in human PBMC assessed as increase in LPS-induced IL10 production at 25 ug/ml measured after overnight incubation by ELISA; type: functional; details: dose 25 µg/ml
[40] = Immunomodulatory activity in human PBMC assessed as increase in LPS-induced IL1RA production at 25 ug/ml measured after overnight incubation by ELISA; type: functional; details: dose 25 µg/ml
[41] = Toxicity in CD1 mouse assessed as redness under the skin at 10 mg/kg, sc measured after 16 hrs; type: organism-based; details: in vivo
Staphylococcus aureus [42] = experiment: Antibacterial activity against Staphylococcus aureus USA300 LAC infected in CD1 mouse assessed as reduction in dermonecrosis at 7.5 mg/kg, sc administered at infection site measured after 3 days by caliper method relative to control; type: functional; design: scale not given: the % may be the effect or the level left; details: time 3 day
Staphylococcus aureus [43] = experiment: Antibacterial activity against Staphylococcus aureus USA300 LAC infected in CD1 mouse assessed as dermonecrosis area at 7.5 mg/kg, sc administered at infection site measured after 3 days by caliper method (Rvb > 75 mm2); type: functional; details: time 3 day
Staphylococcus aureus [44] = experiment: Antibacterial activity against Staphylococcus aureus USA300 LAC infected in CD1 mouse assessed as reduction in bacterial load at 7.5 mg/kg, sc administered at infection site measured after 3 days by colony counting method relative to control; type: functional; details: time 3 day

For `CC[C@H](C)[C@@H]1NC(=O)[C@H](CCCNC(=N)N)NC(=O)[C@H](C(C)C)NC(=O)[C@H](C)NC(=O)[C@H](C(C)C)NC(=O)[C@H]([C@@H](C)CC)NC(=O)[C@H](CC(C)C)NC(=O)[C@H](CCCNC(=N)N)NC(=O)[C@H](C(C)C)NC(=O)CC[C@@H](C(N)=O)NC(=O)[C@H](CCCNC(=N)N)NC(=O)[C@H](CCCNC(=N)N)NC(=O)[C@H](Cc2c[nH]c3ccccc23)NC1=O` (VRLIVAVRIWRRE-NH2; lactam N-13), the MIC (Staphylococcus aureus [1]) was 15.1 µM (≈ 24.9 µg/mL), the MIC (Staphylococcus aureus [2]) was 15.1 µM (≈ 24.9 µg/mL) and the MIC (Pseudomonas aeruginosa [3]) was 30.3 µM (≈ 49.9 µg/mL). The MIC (Pseudomonas aeruginosa [4]) was 30.3 µM (≈ 49.9 µg/mL), the MIC (Escherichia coli [5]) was 30.3 µM (≈ 49.9 µg/mL) and the MIC (Acinetobacter baumannii [6]) was 15.1 µM (≈ 24.9 µg/mL). It also gave an MIC (Acinetobacter baumannii [7]) of 15.1 µM (≈ 24.9 µg/mL), an MIC (Klebsiella pneumoniae [8]) of 15.1 µM (≈ 24.9 µg/mL) and an MBEC (Staphylococcus aureus [9]) of 9.7 µM. It also gave an MBEC (Staphylococcus aureus [10]) of 7.2 µM, an MBEC (Pseudomonas aeruginosa [11]) of 38.8 µM and an MBEC (Pseudomonas aeruginosa [12]) of 38.8 µM. The MBEC (Escherichia coli [13]) was 38.8 µM, the MBEC (Acinetobacter baumannii [14]) was 15.1 µM and the MBEC (Acinetobacter baumannii [15]) was 15.1 µM. For the same molecule, the MBEC (Klebsiella pneumoniae [16]) was 9.7 µM, the MBIC (Staphylococcus aureus [17]) was 7.2 µM and the MBIC (Staphylococcus aureus [18]) was 7.2 µM. For the same molecule, the Activity (Pseudomonas aeruginosa [19]) was 70%, the Activity (Pseudomonas aeruginosa [20]) was 70% and the Activity (Escherichia coli [21]) was 70%. For the same molecule, the Activity (Acinetobacter baumannii [22]) was 70%, the Activity (Acinetobacter baumannii [23]) was 70% and the Activity (Klebsiella pneumoniae [24]) was 70%. The metabolised at 2 h, 20 ug/ml (Trypsin) was 30%, the Activity [25] was “Not Active” and the Activity [26] was “Not Active”. The Activity [27] was “Not Active”, the Activity [28] was “Active” and the Activity [29] was “Not Active”. For the same molecule, the Activity [30] was “Not Active”, the Activity [31] was “Not Active” and the Activity [32] was “Not Active”. For the same molecule, the Activity [33] was “Toxic”, the Activity (PBMC [34]) was “Active” and the Activity (PBMC [35]) was “inactive”. For the same molecule, the Activity (PBMC [36]) was “Active”, the Activity (PBMC [37]) was “Active” and the Activity [38] was 35%. For the same molecule, the Activity [39] was 30%, the Activity [40] was 35% and the Activity [41] was “Toxic”. For the same molecule, the Activity (Staphylococcus aureus [42]) was 90%, the Activity (Staphylococcus aureus [43]) was 5 mm2 and the “fold change (FC)” value (Staphylococcus aureus [44]) was 1000.
